Consider one substance from article PMC10812672, “Short Antimicrobial Peptide Derived from the Venom Gland Transcriptome of Pamphobeteus verdolaga Increases Gentamicin Susceptibility of Multidrug-Resistant Klebsiella pneumoniae” (Antibiotics, 2023).

Ends that are not written are not given here.

Data set [1] has as its system multidrug-resistant (MDR) strain of K. pneumoniae, clinical isolate. The data set is described as follows: microbe, parasite or virus in culture. Format: cell-based, Klebsiella pneumoniae. As to conditions: MDR K. pneumoniae clinical isolate. The protocol: A multidrug-resistant (MDR) strain of K. pneumoniae was identified and isolated from a tertiary-level hospital in Medellin, Colombia, using the VITEK-2 system (bioMérieux, Marcy-l’Étoile, France). The MDR strain was evaluated against several antibiotics at concentrations of 1.56–100 μM. […] In contrast, the strain was susceptible to doxycycline (Supplementary Figure S7g) and chloramphenicol (Supplementary Figure S7h), with MICs of 50 μM and 100 µM, respectively (Table 3). […] All of P. verdolaga’s AMPs were evaluated against the clinical isolate at concentrations of 1.56–200 µM (Supplementary Figure S8). […] A growth inhibition kinetic assay was conducted. […] All of P. verdolaga’s peptides at 100 μM induced morphological changes in the MDR K. pneumoniae, indicating membrane interactions, even though no significant inhibition was observed (Supplementary Figure S9).
The evaluation of the antimicrobial activity of the peptides was conducted using the CLSI’s broth microdilution method for bacterial susceptibility testing. For the screening phase, peptides were evaluated at a single 30 μM concentration, in triplicate and in three independent assays, against the E. coli ATCC® 8739, E. coli ATCC® 25922, S. aureus ATCC® 6538, or S. aureus ATCC® 29213 reference USP and CLSI strains. For the determination of MIC, MBC, or IC50, peptides or antibiotics were evaluated in concentrations between 1.56–200 µM. These evaluations were conducted in triplicate and in three independent assays, against the E. coli ATCC® 25922, S. aureus ATCC® 29213, E. faecalis ATCC® 49532, P. aeruginosa ATCC® 9027, and K. pneumoniae ATCC® BAA-1705, or the clinically isolated MDR strain. In detail, 1 mL of a glycerol stock solution of the ATCC® or clinically isolated bacterial strain was added to 9 mL of Mueller-Hinton Broth and incubated for 18 h, 180 rpm and 37 °C (Incubator 1000, Heidolph Instruments, Schwabach, Germany). After the incubation, 1 mL of the previous solution was transferred to a new recipient containing 9 mL of fresh Mueller-Hinton broth and incubated for 4 h, 180 rpm and 37 °C (Incubator 1000, Heidolph Instruments, Schwabach, Germany). During the second incubation, the peptides or the antibiotics were dissolved in PBS pH 7.20 in concentrations between 19.53–2500 µM (MC5 Micro Balance, Sartorius AG, Göttingen, Germany). An amount of 10 µL of either peptide or antibiotic was dispensed in triplicate in 96-well flat bottom culture plates, along with 10 µL of PBS (Negative activity control), BTM-P1 (Positive activity control), or 10 µL of Mueller-Hinton broth (Blank); then, 110 µL of Mueller-Hinton broth was poured in all wells. Following this, the bacteria were suspended in Mueller-Hinton broth up to a concentration of approximately 1.50 × 10^8 CFU/mL, as measured by optical density at 600 nm between 0.06 to 0.11 (0.5 McFarland standard), in a Multiskan SkyHigh spectrophotometer (ThermoFisher Scientific, Waltham, MA, USA). Amounts of 5 µL of the 1.50 × 10^8 CFU/mL suspension were added to each well (except for the blank) for a final well concentration of approximately 6 × 10^6 CFU/mL. The plate was incubated for 24 h at 37 °C (BE 500, Memmert GmbH, Büchenbach, Germany) and optical density was measured at 600 nm in a Multiskan SkyHigh spectrophotometer (ThermoFisher Scientific, Waltham, MI, USA). Following the measurement of optical density, plates were visually inspected to determine the MIC. Subsequently, 100 µL of the concentration associated to the MIC and 100 µL of the next higher concentration were added to Petri dishes containing Mueller-Hinton Agar. The dishes were then incubated for 24 h at 37 °C (BE 500, Memmert GmbH, Büchenbach, Germany). After incubation, the Petri dishes were visually inspected, and the MBC was determined in the absence of growth. IC50 values were interpolated from regressions with correlation values above 0.70. […]

Data set [2] relates to human red blood cells (hRBCs). The data set is described as follows: Hemolytic activity. Format: cell-based. The protocol:
The cytotoxicity of PvAMP66 was assessed in vitro against human red blood cells (hRBCs) and human peripheral blood mononuclear cells (hPBMCs) using concentrations of 1.56–200 µM. At the highest concentration, PvAMP66 induced 60% hemolysis in human erythrocytes (Figure 3a), and a decrease in viability of approximately 40% in the hPBMCs (Figure 3b). […] Ratios between CC50 or HC50, and the IC50 values registered for the bacterial strains, indicate that PvAMP66 has higher selectivity for interacting with prokaryotic membranes (Table 4).
Human red blood cells (hRBCs) were obtained from the Blood Bank of the School of Microbiology of the University of Antioquia in Medellín, Colombia. Ten mL of hRBCs were diluted in 10 mL of PSB pH 7.20, mixed by inversion, and centrifuged five times at 4 °C, 1000× g for 10 min (Universal 32 R, Hettich Group, Kirchlengern, Westphalia, Germany). […] Then, the supernatant was transferred to 96-well flat bottom culture plates without transferring of the RBC pellet, and hemoglobin release was measured at 420 nm (Multiskan SkyHigh, ThermoFisher Scientific, Waltham, MA, USA). All peptides were evaluated in three independent assays. The hemolysis percentage was calculated as follows: Hemolysis %=AbsPEPTIDE−Median AbsPBS/Median AbsTRITON−Median AbsPBS×100

For the substance WKKIKKFF-NH2 [PvAMP66], the “MIC” value in data set [1] was determined as 3.51 µg/mL; in data set [1] (peptides 1.56–200 µM, antibiotics 1.56–100 µM, 24 h 37 °C), 25.00 µM. For the same substance, the IC50 in data set [1] (95% confidence interval in parentheses, read-out: IC50) came out at 15.8 µM. For the same substance, in data set [2] (10% v/v hRBC in PBS pH 7.20, 1 h 37 °C, hemoglobin at 420 nm, 1.56–200 µM, logistic regression, 95% CI in parentheses, three independent assays), the “HC50 (Hemolytic Concentration 50)” value was 132.96 (118.82–151.21) µM. Moreover, the hemolysis in data set [2] (human erythrocytes, highest concentration (200 µM), 1 h 37 °C) came out at 60%.
